According to patent publication US8569286B2, “Notch pathway signaling inhibitor compound” (Eli Lilly and Company, priority 2011, dated 2013):

Tests used:
major CYP450 enzymes = experiment: CYP450 inhibition and induction; format: in vitro ADME
[1] = In vivo metabolism and excretion in dogs
HEK293ΔE12 cells = experiment: Relative cytotoxicity profiling (% cell number) in the N1ICD imaging assay; format: cell-based; conditions: 24 hours treatment
Protocol: (§1) HEK293ΔE12 cells (HEK293 cells are engineered to stably express mouse Notch 1 cDNA coding for amino acid 1703-2183, NP_032740.3, with 23 amino acid signal peptide sequence, […] (SEQ ID NO:1), at its N-terminus) are plated at 5000 cells/well in 96 well plates, incubated in Dulbecco's Modified Eagle's Medium-high glucose with 5% fetal bovine serum at 37° C., 5% CO2 for 24 hours. Cells are treated with test compound, dosing at 10 points of 1:3 dilutions across the range of 1000 nM to 0.05 nM, and with final dimethyl sulfoxide (DMSO) concentration at 0.2%. […] Plates are scanned with ACUMEN EXPLORER™ Laser-scanning fluorescence microplate cytometer (TTP LABTECH LTD) to measure total cell nuclear count/well and total nuclear area/well with fluorescence at 655 nm-705 nm (emission of DNA bound propidium iodide) and fluorescence of antibody binding to N1ICD in nuclear region at 505 nm-530 nm. The main assay output is a ratio of total fluorescence of nuclear N1ICD to total nuclear area, the normalized nuclear N1ICD signal. […] Concentration response and the IC50 are determined by curve fitting to a four parameter logistic for the nuclear N1ICD signal, while the % cell number is plotted in the same graph for cytotoxicity profiling.

[2] = Metabolism by liver microsomes optimized for oxidative CYP450 metabolism; format: in vitro ADME
[3] = Atropisomer equilibrium in solution (1H NMR and LC-MS); format: physicochemical; conditions: ambient temperature, after 24 hours
Protocol: In aqueous solutions, 8-9% of atropisomer 2 (minor atropisomer) is detected by ^1H NMR and LC-MS in equilibrium with atropisomer 1 (major atropisomer) at ambient temperature after 24 hours. In organic solvents, at ambient temperature after 24 hours, approximately 1-2% of atropisomer 2 is detected by ^1H NMR and LC-MS in equilibrium with atropisomer 1. Although detectable by ^1H NMR and LC-MS analysis, atropisomer 2 is not isolable.

[4] = In vivo pharmacokinetics, excretion and metabolism in rats
Protocol: Compound 1 was evaluated in vivo in bile-duct cannulated rats to study systemic pharmacokinetics (PK), excretion, and metabolism. In vivo 51% of the IV dose was excreted unchanged, predominately in the urine, with low (2% of parent) systemic exposure to an active N-dealkylated metabolite, 4,4,4-trifluoro-N-[(1S)-1-methyl-2-oxo-2-[[(7S)-6-oxo-5,7-dihydropyrido[2,3-d][3]benzazepin-7-yl]amino]ethyl]butanamide.

N1ICD cleavage (Notch1) = experiment: Inhibition of N1ICD cleavage in human tumor cell lines (N1ICD ELISA); format: cell-based; conditions: 24 hours treatment
Description: To evaluate potency of Compound 1 in its ability to inhibit N1ICD cleavage, several human tumor cell lines are utilized. A2780 is a human ovarian cell line (Sigma-Aldrich, No. 93112519); MIA PaCa-2 is a human pancreas cell line (ATCC No. CRL-1420); BxPC-3 is a human pancreas cell line (ATCC No. CRL-1687); SW480 is a human colorectal cell line (ATCC No. CCL-228); HCT 116 is a human colorectal cell line (ATCC No. CCL-247); DLD-1 is a human colorectal cell line (ATCC No. CCL-221); MDA-MB-231 is a human mammary gland cell line (ATCC No. HTB-26); U-87 MG is a human glioblastoma cell line (ATCC No. HTB-14); A375 is a human malignant melanoma cell line (ATCC No. CRL-1619); CCRF-CEM is a human acute lymphoblastic leukemia (ALL) cell line (ATCC No. CCL-119); SUP-T1 is a human T-cell lymphoblastic leukemia cell line (ATCC No. CRL-1942); K-562 is a human chronic myelogenous leukemia (CML) cell line characterized by the presence of a fusion transcript comprised of the Bcr and Abl1 genes (ATCC No. CCL-243); Jurkat, Clone E6-1 is a human acute T-cell leukemia cell line (ATCC No. TIB-152); MOLT-3 is a human acute lymphoblastic leukemia (ALL) cell line (ATCC No. CRL-1552); MOLT-4 is a human acute lymphoblastic leukemia (ALL) cell line (ATCC No. CRL-1582); HEL 92.1.7 is a human erythroleukemia cell line (ATCC No. TIB-180). Each of the cell lines are obtained from the American Type Culture Collection (ATCC) at the ATCC number stated, except the A2780 cell line which is obtained from Sigma-Aldrich at the stated catalog number. The cells are grown in their respective culture media at 37° C. in 5% CO2 with humidity in the atmosphere. Cell culture media for A2780 human ovarian carcinoma is RPMI-1640 (without phenol red) with 2.05 mM L-glutamine, added 2 mM L-glutamine, 0.01 mg/ml insulin and 10% fetal bovine serum (FBS); for HCT 116 human colorectal carcinoma is McCoy's 5A with 1.5 mM L-glutamine, 0.075% Na-bicarbonate and 10% FBS; for SW480 human colorectal carcinoma is RPMI-1640 with 2.05 mM L-glutamine, 20 mM HEPES and 10% FBS; U-87 MG human glioblastoma is Minimal Essential Medium/Earl's Balanced Salt Solution with 2 mM L-glutamine, 0.1 mM Non-essential amino acids (NEAA), 1 mM Na-pyruvate, and 10% FBS; for MIA PaCa-2 human pancreatic carcinoma is Dulbecco's Modified Eagles Medium (DMEM) without Na-pyruvate, with high glucose ([…]), 4 mM L-glutamine, 2.5% horse serum and 10% FBS; for K-562 human CML is DMEM with high glucose ([…]), 4 mM L-glutamine, 10 mM HEPES, 0.1 mM NEAA, 1 mM Na-pyruvate and 10% FBS; for Jurkat, Clone E6-1 human acute T cell leukemia is RPMI-1640 with 2.05 mM L-glutamine, 2.5 g/L glucose, 10 mM HEPES, 1 mM Na-pyruvate, 0.075% Na-bicarbonate and 10% FBS; for A-375 human malignant melanoma and MDA-MB-231 human breast adenocarcinoma is DMEM with high glucose ([…]), 4 mM L-glutamine and 10% FBS; for BxPC-3 human pancreatic adenocarcinoma, DLD-1 human colorectal adenocarcinoma, SUP-T1 human lymphoblastic leukemia, MOLT-3 human ALL, Molt-4 human ALL, CCRF-CEM human ALL, and HEL 92.1.7 human erythroleukemia is RPMI-1640 with 2.05 mM L-glutamine, 2.5 g/L glucose, 20 mM HEPES, 1 mM Na-pyruvate, and 10% FBS. When 80-90% confluent, cells are treated with compound, dosing at 10 points of 1:3 dilutions across the range of 50 nM to 0.0025 nM, and with final dimethyl sulfoxide (DMSO) concentration at 0.01%. […]

[5] = system: mouse Notch 1 (nuclear N1ICD signal); experiment: Notch1 N1ICD Nuclear Accumulation Cellular Imaging Assay; format: cell-based; conditions: HEK293ΔE12 cells, 24 hours treatment, n=7
Protocol: as §1

What does the source list for `C[C@H](NC(=O)CCC(F)(F)F)C(=O)N[C@@H]1C(=O)N(CCO)c2ncccc2-c2ccccc21` [Compound 1, 4,4,4-trifluoro-N-[(1S)-2-[[(7S)-5-(2-hydroxyethyl)-6-oxo-7H-pyrido[2,3-d][3]benzazepin-7-yl]amino]-1-methyl-2-oxo-ethyl]butanamide]?
inhibition or induction of the major CYP450 enzymes (major CYP450 enzymes): not an inhibitor or inducer; clearance by excretion of parent compound ([1]; bile-duct intact dogs): appreciable clearance by excretion of parent compound; major circulating active metabolites ([1]; bile-duct intact dogs): absence of major circulating active metabolites; major oxidative metabolites in circulation or excreta ([1]; dogs in vivo): not observed; concentration up to which cell number is not affected (cytotoxicity profiling) (HEK293ΔE12 cells): > 1000 nM; metabolism by liver microsomes [2]: not metabolized to any appreciable extent; atropisomer 2 (minor atropisomer) in equilibrium with atropisomer 1 ([3]; aqueous solutions): 8-9%; atropisomer 2 (minor atropisomer) in equilibrium with atropisomer 1 ([3]; organic solvents): 1-2%; dose excreted unchanged ([4]; bile-duct cannulated rats, IV dose, predominately in the urine): 51%; additional circulating metabolites (profiling of rat plasma) ([4]; rat plasma): absence of additional circulating metabolites; major oxidative metabolites in circulation or excreta ([4]; rats in vivo): not observed; IC50 (N1ICD cleavage (Notch1); A2780 cells): 1.03 nM; IC50 (N1ICD cleavage (Notch1); A-375 cells): 0.48 nM; IC50 (N1ICD cleavage (Notch1); BxPC-3 cells): 0.39 nM; IC50 (N1ICD cleavage (Notch1); CCRF-CEM cells): 0.76 nM; IC50 (N1ICD cleavage (Notch1); DLD-1 cells): 0.98 nM; IC50 (N1ICD cleavage (Notch1); HCT 116 cells): 0.72 nM; IC50 (N1ICD cleavage (Notch1); HEL 92.1.7 cells): 0.23 nM; IC50 (N1ICD cleavage (Notch1); Jurkat cells): 5.95 nM; IC50 (N1ICD cleavage (Notch1); K-562 cells): 0.74 nM; IC50 (N1ICD cleavage (Notch1); MDA-MB-231 cells): 0.5 nM; IC50 (N1ICD cleavage (Notch1); MIA PaCa-2 cells): 0.71 nM; IC50 (N1ICD cleavage (Notch1); MOLT-3 cells): 0.61 nM; IC50 (N1ICD cleavage (Notch1); MOLT-4 cells): 0.74 nM; IC50 (N1ICD cleavage (Notch1); SUP-T1 cells): 1.24 nM; IC50 (N1ICD cleavage (Notch1); SW480 cells): 0.1 nM; IC50 (N1ICD cleavage (Notch1); U-87 MG cells): 0.28 nM; IC50 [5]: 0.41 nM
